{"source": "patent EP4670722A1", "about": "“PROPHYLACTIC OR AMELIORATING AGENT FOR CELL AGING” (Kyowa Pharma Chemical Co., Ltd., priority 2023, dated 2024)", "key": {"[1]": {"system": "Human normal epidermal keratinocytes (HaCaT)", "assay": "Cell viability (Cell Counting Kit-8) of tunicamycin-treated epidermal keratinocytes", "type": "cell-based", "conditions": "tunicamycin 0.1 µg/mL, 50 µg/mL to 200 µg/mL, 24 hours, effect increased as content increased, Fig. 5", "protocol": "Human normal epidermal keratinocytes (HaCaT) were cultured using DMEM containing 10% FBS. The cultured cells were collected by trypsin treatment. The collected cells were seeded in a 96-well plate, and when they reached 100% confluence, tunicamycin, an agent that induces endoplasmic reticulum stress, was added at 0.1 µg/mL, and the cells were cultured for 24 hours. A group was also prepared in which FBS-free DMEM medium containing a test sample (2'-fucosyllactose) at 50 µg/mL, 100 µg/mL, or 200 µg/mL was added simultaneously with tunicamycin, and cultured for 24 hours. After completion of culture, the viability of human normal epidermal keratinocytes was evaluated using Cell Counting Kit-8 (manufactured by Dojindo Laboratories). The measurement wavelength (As) was set to 450 nm, and the reference wavelength was set to 620 nm.\nHuman normal epidermal keratinocytes were cultured and the absorbance at a measurement wavelength of 450 nm was measured in the same manner as in Example 4-1, except that tunicamycin and the test sample were not added. The obtained absorbance was designated as Ab, and the cell viability represented by the above formula (1) was determined."}, "GLS1 [2]": {"system": "GLS1", "assay": "GLS1 expression analysis (Western blot) in dermal fibroblasts cultured with medium of hydrogen peroxide-treated cells", "type": "cell-based, Human", "conditions": "dermal fibroblasts NB1RGB, 50 µg/mL to 200 µg/mL, 24 hours, protein level vs β-actin; effect increased as content increased; Fig. 4", "protocol": "Human normal dermal fibroblasts (NB1RGB, PDL of 30 or less) were cultured using DMEM containing 10% FBS. The cultured cells were collected by trypsin treatment. The collected cell-containing liquid was diluted with DMEM containing 10% FBS to a cell concentration of 5.0 x 10^5 cells, seeded in a 10 cm dish, and cultured until 60% confluent. Thereafter, the cultured cells were subjected to a treatment of exposure to a medium containing 50 µM hydrogen peroxide (FBS-free) for 2 hours once a day for 3 days. Then, the medium was replaced with DMEM containing 5% FBS, and after 2 days, the medium (medium A) was collected. Dermal fibroblasts not exposed to hydrogen peroxide were diluted with DMEM containing 10% FBS to a concentration of 5.0 x 10^5 cells, seeded in a 10 cm dish, and cultured for 24 hours. […]\nThe dermal fibroblasts prepared in [Example 3-1] were diluted with DMEM medium containing 10% FBS to a concentration of 8.0 x 10^4 cells, seeded in a 6-well plate, and cultured until 80% confluent. […] The extracted proteins were quantified by the Bradford assay.\nExcept that no test sample was added, skin fibroblasts prepared in [Example 3-1] and skin fibroblasts cultured using DMEM containing 10% FBS were cultured in the same manner as in [Example 3-2], and proteins were extracted. The extracted proteins were quantified by the Bradford assay. […]"}, "GLS1 [3]": {"system": "GLS1", "assay": "GLS1 expression analysis (ELISA) in Gin-1", "type": "cell-based", "conditions": "human gingival fibroblasts (Gin-1), 50 µg/mL to 1000 µg/mL, 24 hours; effect increased as content increased; Fig. 12", "protocol": "Human gingival fibroblasts (Gin-1) were cultured in DMEM containing 10% FBS. The cultured cells were collected by trypsin treatment. Cells in a state where GLS1 was expressed without addition of the test sample were used for the test. Cells collected by trypsin treatment were seeded in a 6-well plate, and when they reached 80% confluence, DMEM containing the test sample (2'-FL and lactose) at 50 µg/mL, 200 µg/mL, or 1000 µg/mL was added, and cultured for 24 hours in a 37°C, 5% CO2 incubator. The culture supernatant was removed, the cells were washed twice with PBS, and 0.20 mL of RIPA buffer was added to extract total protein. Protein in each protein extract was quantified by the Bradford assay.\nProtein extracts were collected in the same manner as in [Example 10-1 B. Human gastric undifferentiated carcinoma cells (KKLS)], [Example 10-1 C. Mouse microglial cells (BV2)], [Example 10-1 D. Human gingival fibroblasts (Gin-1)], and [Example 10-1 E. Human umbilical vein endothelial cells (HUVEC)], respectively, except that a medium same as the above-mentioned medium but not containing the test sample was used instead of the medium containing the test sample, and protein in each protein extract was quantified by the Bradford assay.\nAn ELISA method was performed using an antibody against GLS1 to measure the amount of GLS1 in the samples. […]"}}}
{"smiles": "C[C@@H]1O[C@@H](O[C@H]2[C@H](O[C@H]3[C@H](O)[C@@H](O)C(O)O[C@@H]3CO)O[C@H](CO)[C@H](O)[C@@H]2O)[C@@H](O)[C@H](O)[C@@H]1O", "note": "(stereo partly drawn) [2'-FL, 2'-fucosyllactose]", "values": [{"measurement": "endoplasmic reticulum stress (cell viability)", "setting": "[1]", "value": "ameliorated endoplasmic reticulum stress"}, {"measurement": "expression of GLS1", "setting": "GLS1 [2]", "value": "suppressed the expression of GLS1"}, {"measurement": "GLS1 expression", "setting": "GLS1 [3]", "value": "suppressed GLS1 expression"}]}
